Where two headings read alike, the source gives them in different places. Where a SMILES comes first, the peptide text is derived from it. Bridges are numbered along the chain shown (N, C = ends). [ ]: non-standard residue; d: D form. The star is where a group is joined. hPhe(3-Cl-4-CF3) = N[C@@H](CCc1ccc(C(F)(F)F)c(Cl)c1)C(=O)O; NPrPhe(4-CF3) = CCCN[C@@H](Cc1ccc(C(F)(F)F)cc1)C(=O)O; NEtPhe(4-CF3) = CCN[C@@H](Cc1ccc(C(F)(F)F)cc1)C(=O)O; NMeGly(cPent) = CN[C@H](C(=O)O)C1CCCC1; Pro(4,4-F2) = O=C(O)[C@@H]1CC(F)(F)CN1; NMeD = CN[C@@H](CC(=O)O)C(=O)O; NMeL = CN[C@@H](CC(C)C)C(=O)O; Morpholide = C1CN(*)CCO1; Aze = O=C(O)[C@@H]1CCN1; Ac4c = NC1(C(=O)O)CCC1; Aib = CC(C)(N)C(=O)O; Sar = CNCC(=O)O
What was measured:
[1] = biological target: GDP-bound HRAS wild-type protein (Homo sapiens, UniProt P01112); experiment: Binding to HRAS by surface plasmon resonance (SPR), Single Cycle Kinetics; settings: for HRAS/KRAS (ratio of KD value for HRAS to KD value for KRAS) / HRAS/KRAS (ratio of KD value with respect to HRAS to KD value with respect to KRAS): SPR, GDP-bound HRAS wild-type protein vs GDP-bound KRAS wild-type protein
[2] = biological target: GDP-bound NRAS wild-type protein (Homo sapiens, UniProt P01111); experiment: Binding to NRAS by surface plasmon resonance (SPR), Single Cycle Kinetics; settings: for NRAS/KRAS (ratio of KD value for NRAS to KD value for KRAS) / NRAS/KRAS (ratio of KD value with respect to NRAS to KD value with respect to KRAS): SPR, GDP-bound NRAS wild-type protein vs GDP-bound KRAS wild-type protein
[3] = system: human lung cancer strain NCI-H441;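 note: cell proliferation inhibition after four days measured by CellTiter-Glo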

Sequence of GDP-bound HRAS wild-type protein (P01112 whole entry): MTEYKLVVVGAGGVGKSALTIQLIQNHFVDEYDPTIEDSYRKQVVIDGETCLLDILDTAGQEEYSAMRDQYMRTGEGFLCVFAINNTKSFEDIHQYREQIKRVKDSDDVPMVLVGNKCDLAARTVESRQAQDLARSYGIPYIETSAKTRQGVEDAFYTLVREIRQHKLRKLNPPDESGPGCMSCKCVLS
Sequence of GDP-bound NRAS wild-type protein (P01111 whole entry): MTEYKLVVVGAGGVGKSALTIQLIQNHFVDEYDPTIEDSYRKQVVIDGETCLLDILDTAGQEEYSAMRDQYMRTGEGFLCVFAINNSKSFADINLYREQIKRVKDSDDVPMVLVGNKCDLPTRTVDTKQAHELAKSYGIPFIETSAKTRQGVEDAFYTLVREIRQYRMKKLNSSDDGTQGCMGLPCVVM

Compound	HRAS/KRAS (ratio of KD value with respect to GDP-bound HRAS wild-type protein to KD value with respect to KRAS) ([1]; SPR KD ratio HRAS/KRAS, class symbols)	NRAS/KRAS (ratio of KD value with respect to GDP-bound NRAS wild-type protein to KD value with respect to KRAS) ([2]; SPR KD ratio NRAS/KRAS, class symbols)	IC50 [3] [nM]	HRAS/KRAS (ratio of KD value for HRAS to KD value for KRAS) [1]	NRAS/KRAS (ratio of KD value for NRAS to KD value for KRAS) [2]	HRAS/KRAS (ratio of KD value with respect to HRAS to KD value with respect to KRAS) [1]	NRAS/KRAS (ratio of KD value with respect to NRAS to KD value with respect to KRAS) [2]	IC50 ([3]; read-out: NCI-H441 IC50, NCI-H441 cells, four days, CellTiter-Glo) [nM]
CCC[C@H]1C(=O)N[C@H]([C@@H](C)CC)C(=O)N(C)CC(=O)N(C)[C@H]2C/C=C\CCN(C2=O)[C@@H](Cc2ccc(C)cc2)C(=O)N(C)CC(=O)N[C@@H](CCc2cc(F)c(C(F)F)c(F)c2)C(=O)N2C[C@H](OCC)C[C@H]2C(=O)NC2(CC(C)(C)C2)C(=O)N(C)[C@@H](C(CC)CC)C(=O)N(C)[C@H](C(=O)N(C)C)CC(=O)N1C (stereo in doubt) [PP2783]	A (a compound having 10 or more and less than 20 is denoted as A)	A (a compound having 10 or more and less than 20 is denoted as A)	33.9					
CC[C@H](C)[C@@H]1NC(=O)[C@H](CC(C)C)N(C)C(=O)C[C@@H](C(=O)N2CCOCC2)N(C)C(=O)[C@H](C2CCCC2)N(C)C(=O)C(C)(C)NC(=O)[C@@H]2CCCN2C(=O)[C@H](CCc2ccc(C(F)(F)F)c(Cl)c2)NC(=O)CN(C)C(=O)[C@H](Cc2ccc(C(F)(F)F)cc2)N(CC)C(=O)CN(C)C(=O)CN(C)C1=O [PP0235] ([NMeL]I[Sar][Sar][NEtPhe(4-CF3)][Sar][hPhe(3-Cl-4-CF3)]P[Aib][NMeGly(cPent)][NMeD]-Morpholide; lactam N-11)			4.5	C (A compound having a KD ratio of 0.1 or more and less than 3 is denoted as C)	B (a compound having 3 or more and less than 10 is denoted as B)			
CC[C@H](C)[C@@H]1NC(=O)[C@H](CC(C)C)N(C)C(=O)C[C@@H](C(=O)N2CCOCC2)N(C)C(=O)[C@H](C2CCCC2)N(C)C(=O)C2(CCCC2)NC(=O)[C@@H]2CCCN2C(=O)[C@H](CCc2ccc(C(F)(F)F)c(Cl)c2)NC(=O)CN(C)C(=O)[C@H](Cc2ccccc2)N2CCCC[C@@H](C2=O)N(C)C(=O)CN(C)C1=O [PP0529]			6.5			B (a compound having 3 or more and less than 10 is denoted as B)	C (A compound having a KD ratio of 0.1 or more and less than 3 is denoted as C)	
CCO[C@@H]1C[C@H]2C(=O)NC3(CCC3)C(=O)N(C)[C@@H](C3CCCC3)C(=O)N(C)[C@H](C(=O)N(C)C)CC(=O)N(C)[C@@H](Cc3ccccc3)C(=O)N[C@@H]([C@@H](C)CC)C(=O)N(C)CC(=O)N(C)[C@H]3CCCCCN(C3=O)[C@@H](Cc3ccc(C(F)(F)F)cc3)C(=O)N(C)CC(=O)N[C@@H](CCc3cc(F)c(C(F)(F)F)c(F)c3)C(=O)N2C1 [PP0672]			19.7			B (a compound having 3 or more and less than 10 is denoted as B)	B (a compound having 3 or more and less than 10 is denoted as B)	
CC[C@H](C)[C@@H]1NC(=O)[C@H](Cc2cccc(F)c2)N(C)C(=O)C[C@@H](C(=O)N2CCOCC2)N(C)C(=O)[C@H](C2CCCC2)N(C)C(=O)C2(CCCC2)NC(=O)[C@@H]2CCCN2C(=O)[C@H](CCc2ccc(C(F)(F)F)c(Cl)c2)NC(=O)CN(C)C(=O)[C@H](Cc2ccc(F)cc2)N2CCCCC[C@@H](C2=O)N(C)C(=O)CN(C)C1=O [PP0962]			83.9	B (a compound having 3 or more and less than 10 is denoted as B)	B (a compound having 3 or more and less than 10 is denoted as B)			
CCCN1C(=O)CN(C)C(=O)[C@@H]2CCN2C(=O)[C@H]([C@@H](C)CC)NC(=O)[C@H](CC(C)C)N(C)C(=O)C[C@@H](C(=O)N(C)C)N(C)C(=O)[C@H](C2CCCC2)N(C)C(=O)C2(CCC2)NC(=O)[C@@H]2CC(F)(F)CN2C(=O)[C@H](CCc2ccc(C(F)(F)F)c(Cl)c2)NC(=O)CN(C)C(=O)[C@@H]1Cc1ccc(C(F)(F)F)cc1 [PP0432] ([NMeL]I[Aze][Sar][NPrPhe(4-CF3)][Sar][hPhe(3-Cl-4-CF3)][Pro(4,4-F2)][Ac4c][NMeGly(cPent)][NMeD]-NMe2; lactam N-11)			10.7			B (a compound having 3 or more and less than 10 is denoted as B)	B (a compound having 3 or more and less than 10 is denoted as B)	
CCO[C@@H]1C[C@H]2C(=O)NC3(CCC3)C(=O)N(C)[C@@H](C3CCCC3)C(=O)N(C)[C@H](C(=O)N(C)C)CC(=O)N(C)[C@@H](Cc3ccccc3C)C(=O)N[C@@H]([C@@H](C)CC)C(=O)N(C)CC(=O)N(C)[C@H]3CCCCCN(C3=O)[C@@H](Cc3ccc(C(F)(F)F)cc3)C(=O)N(C)CC(=O)N[C@@H](CCc3cc(F)c(C(F)(F)F)c(F)c3)C(=O)N2C1 [PP0941]			63.9	B (a compound having 3 or more and less than 10 is denoted as B)	B (a compound having 3 or more and less than 10 is denoted as B)			
CC[C@H](C)[C@@H]1NC(=O)[C@H](CC(C)C)N(C)C(=O)C[C@@H](C(=O)N2CCOCC2)N(C)C(=O)[C@H](C2CCCC2)N(C)C(=O)C2(CCC2)NC(=O)[C@@H]2[C@@H](OCC3CCCC3)CCN2C(=O)[C@H](CCc2cc(F)c(C(F)(F)F)c(F)c2)NC(=O)CN(C)C(=O)[C@H](Cc2ccc(C(F)(F)F)cc2)N2CCCCC[C@@H](C2=O)N(C)C(=O)CN(C)C1=O [PP1011]			314	B (a compound having 3 or more and less than 10 is denoted as B)	A (a compound having 10 or more and less than 20 is denoted as A)			
CC[C@H](C)[C@@H]1NC(=O)[C@H](CC(C)C)N(C)C(=O)C[C@@H](C(=O)N(C)C)N(C)C(=O)[C@@H](C2CCCC2)N(C)C(=O)C2(CCCC2)NC(=O)[C@@H]2CCCN2C(=O)[C@H](CCc2ccc(C(F)(F)F)c(Cl)c2)NC(=O)CN(C)C(=O)[C@H](Cc2ccc(C(F)(F)F)cc2)N2CC/C=C(/C)C[C@@H](C2=O)N(C)C(=O)CN(C)C1=O [PP0617]			159			B (a compound having 3 or more and less than 10 is denoted as B)	B (a compound having 3 or more and less than 10 is denoted as B)	
CCC(CC)[C@H]1C(=O)N(C)[C@H](C(=O)N2CCCCC2)CC(=O)N(C)[C@H]2CCC/C=C/c3ccc(cc3)C[C@@H](C(=O)N(C)CC(=O)N[C@@H](CCc3ccc(Cl)c(Cl)c3)C(=O)N3CCC[C@H]3C(=O)NC3(CC(C)(C)C3)C(=O)N1C)N1CC/C=C\C[C@@H](C1=O)N(C)C(=O)CN(C)C(=O)[C@H]([C@@H](C)CC)NC2=O [PP3055]				A (a compound having 10 or more and less than 20 is denoted as A)	AA (a compound having 20 or more is denoted as AA)			69.2
